According to PubChem BioAssay AID1963837 (Molecular Pharmacology Branch, DTP, NCI, 2024):
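Also: spheroids exposed to drugs for seven days before readout.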

These compounds were tested on 843126-344-R-J1-PDC complex spheroid viability (assay: Anticancer human tumor 843126-344-R-J1-PDC patient-derived melanoma cell line growth inhibition [POLQ]). Conditions: second compound 1 µM; first compound 0.316 µM; active compounds read low.
Summary of the method: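 Complex spheroid viability model combining PDC tumour cells with endothelial (HUVEC) and MSC stromal cells. Novobiocin, ART-558 or RP6685 were tested singly and in combination with standard and investigational anticancer drugs. Each was titrated in half-log steps from near clinical Cmax, or from 10 microM where Cmax was unknown.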
In the case of `CC(C)n1c(=O)n(C)c2cnc3cc(F)c(-c4ccc(OCCCN5CCCCC5)nc4)cc3c21` + Cc1cccc(N(C)C(=O)C2C(O)CCN2c2nc(C)cc(C(F)(F)F)c2C#N)c1, the viability, T/C is reported as 86.7%. `CCc1cc2c(N3CCc4c(cc(Cn5ccnc5)cc4-c4cn(C)nc4C(F)(F)F)C3=O)cc(C)nc2c(OC)n1` + Cc1cccc(N(C)C(=O)C2C(O)CCN2c2nc(C)cc(C(F)(F)F)c2C#N)c1 was tested, and the viability, T/C was 77.3%. With `CCc1cc2c(N3CCc4c(cc(Cn5ccnc5)cc4-c4cn(C)nc4C(F)(F)F)C3=O)ccnc2c(OC)n1` + Cc1cccc(N(C)C(=O)C2C(O)CCN2c2nc(C)cc(C(F)(F)F)c2C#N)c1 the viability, T/C was 86.3%. Work on `COc1cc2cc(C(=O)CCC(=O)O)sc2cc1OC` + Cc1cccc(N(C)C(=O)C2C(O)CCN2c2nc(C)cc(C(F)(F)F)c2C#N)c1 yielded a viability, T/C of 88.1%. Work on `COc1ccc([C@@H](O)c2cc(-c3ncnc4cc(N5CCOCC5)ccc34)c(F)cc2Cl)nn1` + Cc1cccc(N(C)C(=O)C2C(O)CCN2c2nc(C)cc(C(F)(F)F)c2C#N)c1 yielded a viability, T/C of 69.6%. In the case of `O=C(Nc1ccc(O)c(NS(=O)(=O)c2ccc(F)cc2)c1)c1ccc(-c2ccccc2)cc1` + Cc1cccc(N(C)C(=O)C2C(O)CCN2c2nc(C)cc(C(F)(F)F)c2C#N)c1, the viability, T/C is reported as 96.6%.

Same assay, conditions: second compound 1 µM; first compound 1 µM; active compounds read low
`C#Cc1c(F)ccc2cc(O)cc(-c3ncc4c(N5CC6CCC(C5)N6)nc(OCC56CCCN5CC(F)C6)nc4c3F)c12` (configuration not stated) + Cc1cccc(N(C)C(=O)C2C(O)CCN2c2nc(C)cc(C(F)(F)F)c2C#N)c1 showed a viability, T/C of 89.9%. `C=CC(=O)N1CCN(c2nc(=O)n(-c3c(C)ccnc3C(C)C)c3nc(-c4c(O)cccc4F)c(F)cc23)C(C)C1` (configuration not stated) + Cc1cccc(N(C)C(=O)C2C(O)CCN2c2nc(C)cc(C(F)(F)F)c2C#N)c1 was tested, and the viability, T/C was 90.2%. `CC(C)n1c(=O)n(C)c2cnc3cc(F)c(-c4ccc(OCCCN5CCCCC5)nc4)cc3c21` + Cc1cccc(N(C)C(=O)C2C(O)CCN2c2nc(C)cc(C(F)(F)F)c2C#N)c1 showed a viability, T/C of 78.5%. For `CCc1cc2c(N3CCc4c(cc(Cn5ccnc5)cc4-c4cn(C)nc4C(F)(F)F)C3=O)cc(C)nc2c(OC)n1` + Cc1cccc(N(C)C(=O)C2C(O)CCN2c2nc(C)cc(C(F)(F)F)c2C#N)c1, the viability, T/C was 70%. In the case of `CCc1cc2c(N3CCc4c(cc(Cn5ccnc5)cc4-c4cn(C)nc4C(F)(F)F)C3=O)ccnc2c(OC)n1` + Cc1cccc(N(C)C(=O)C2C(O)CCN2c2nc(C)cc(C(F)(F)F)c2C#N)c1, the viability, T/C is reported as 73.5%. `COc1cc2cc(C(=O)CCC(=O)O)sc2cc1OC` + Cc1cccc(N(C)C(=O)C2C(O)CCN2c2nc(C)cc(C(F)(F)F)c2C#N)c1 was tested, and the viability, T/C was 93.5%. With `COc1ccc([C@@H](O)c2cc(-c3ncnc4cc(N5CCOCC5)ccc34)c(F)cc2Cl)nn1` + Cc1cccc(N(C)C(=O)C2C(O)CCN2c2nc(C)cc(C(F)(F)F)c2C#N)c1 the viability, T/C was 86.6%. With `O=C(Nc1ccc(O)c(NS(=O)(=O)c2ccc(F)cc2)c1)c1ccc(-c2ccccc2)cc1` + Cc1cccc(N(C)C(=O)C2C(O)CCN2c2nc(C)cc(C(F)(F)F)c2C#N)c1 the viability, T/C was 99.9%.

Same assay, conditions: second compound 1 µM; first compound 3.16 µM; active compounds read low
In the case of `C#Cc1c(F)ccc2cc(O)cc(-c3ncc4c(N5CC6CCC(C5)N6)nc(OCC56CCCN5CC(F)C6)nc4c3F)c12` (configuration not stated) + Cc1cccc(N(C)C(=O)C2C(O)CCN2c2nc(C)cc(C(F)(F)F)c2C#N)c1, the viability, T/C is reported as 91.2%. `C=CC(=O)N1CCN(c2nc(=O)n(-c3c(C)ccnc3C(C)C)c3nc(-c4c(O)cccc4F)c(F)cc23)C(C)C1` (configuration not stated) + Cc1cccc(N(C)C(=O)C2C(O)CCN2c2nc(C)cc(C(F)(F)F)c2C#N)c1 was tested, and the viability, T/C was 106%. `CC(C)n1c(=O)n(C)c2cnc3cc(F)c(-c4ccc(OCCCN5CCCCC5)nc4)cc3c21` + Cc1cccc(N(C)C(=O)C2C(O)CCN2c2nc(C)cc(C(F)(F)F)c2C#N)c1 showed a viability, T/C of 81%. `CCc1cc2c(N3CCc4c(cc(Cn5ccnc5)cc4-c4cn(C)nc4C(F)(F)F)C3=O)cc(C)nc2c(OC)n1` + Cc1cccc(N(C)C(=O)C2C(O)CCN2c2nc(C)cc(C(F)(F)F)c2C#N)c1 gave a viability, T/C of 75.5%. `CCc1cc2c(N3CCc4c(cc(Cn5ccnc5)cc4-c4cn(C)nc4C(F)(F)F)C3=O)ccnc2c(OC)n1` + Cc1cccc(N(C)C(=O)C2C(O)CCN2c2nc(C)cc(C(F)(F)F)c2C#N)c1 gave a viability, T/C of 68%. Work on `COc1cc2cc(C(=O)CCC(=O)O)sc2cc1OC` + Cc1cccc(N(C)C(=O)C2C(O)CCN2c2nc(C)cc(C(F)(F)F)c2C#N)c1 yielded a viability, T/C of 91.8%. Compound `COc1ccc([C@@H](O)c2cc(-c3ncnc4cc(N5CCOCC5)ccc34)c(F)cc2Cl)nn1` + Cc1cccc(N(C)C(=O)C2C(O)CCN2c2nc(C)cc(C(F)(F)F)c2C#N)c1 has a viability, T/C of 79.8%. With `O=C(Nc1ccc(O)c(NS(=O)(=O)c2ccc(F)cc2)c1)c1ccc(-c2ccccc2)cc1` + Cc1cccc(N(C)C(=O)C2C(O)CCN2c2nc(C)cc(C(F)(F)F)c2C#N)c1 the viability, T/C was 92.4%.

Same assay, conditions: second compound 1 µM; first compound 10 µM; active compounds read low
For `C#Cc1c(F)ccc2cc(O)cc(-c3ncc4c(N5CC6CCC(C5)N6)nc(OCC56CCCN5CC(F)C6)nc4c3F)c12` (configuration not stated) + Cc1cccc(N(C)C(=O)C2C(O)CCN2c2nc(C)cc(C(F)(F)F)c2C#N)c1, the viability, T/C was 79%. `C=CC(=O)N1CCN(c2nc(=O)n(-c3c(C)ccnc3C(C)C)c3nc(-c4c(O)cccc4F)c(F)cc23)C(C)C1` (configuration not stated) + Cc1cccc(N(C)C(=O)C2C(O)CCN2c2nc(C)cc(C(F)(F)F)c2C#N)c1 gave a viability, T/C of 71.3%. In the case of `CC(C)n1c(=O)n(C)c2cnc3cc(F)c(-c4ccc(OCCCN5CCCCC5)nc4)cc3c21` + Cc1cccc(N(C)C(=O)C2C(O)CCN2c2nc(C)cc(C(F)(F)F)c2C#N)c1, the viability, T/C is reported as 64.3%. With `CCc1cc2c(N3CCc4c(cc(Cn5ccnc5)cc4-c4cn(C)nc4C(F)(F)F)C3=O)cc(C)nc2c(OC)n1` + Cc1cccc(N(C)C(=O)C2C(O)CCN2c2nc(C)cc(C(F)(F)F)c2C#N)c1 the viability, T/C was 63.8%. Work on `CCc1cc2c(N3CCc4c(cc(Cn5ccnc5)cc4-c4cn(C)nc4C(F)(F)F)C3=O)ccnc2c(OC)n1` + Cc1cccc(N(C)C(=O)C2C(O)CCN2c2nc(C)cc(C(F)(F)F)c2C#N)c1 yielded a viability, T/C of 55.3%. Work on `COc1cc2cc(C(=O)CCC(=O)O)sc2cc1OC` + Cc1cccc(N(C)C(=O)C2C(O)CCN2c2nc(C)cc(C(F)(F)F)c2C#N)c1 yielded a viability, T/C of 86.4%. `COc1ccc([C@@H](O)c2cc(-c3ncnc4cc(N5CCOCC5)ccc34)c(F)cc2Cl)nn1` + Cc1cccc(N(C)C(=O)C2C(O)CCN2c2nc(C)cc(C(F)(F)F)c2C#N)c1 gave a viability, T/C of 68.1%. `O=C(Nc1ccc(O)c(NS(=O)(=O)c2ccc(F)cc2)c1)c1ccc(-c2ccccc2)cc1` + Cc1cccc(N(C)C(=O)C2C(O)CCN2c2nc(C)cc(C(F)(F)F)c2C#N)c1 was tested, and the viability, T/C was 72.6%.

Same assay, conditions: second compound 3.16 µM; first compound 0.0316 µM; active compounds read low
Compound `C#Cc1c(F)ccc2cc(O)cc(-c3ncc4c(N5CC6CCC(C5)N6)nc(OCC56CCCN5CC(F)C6)nc4c3F)c12` (configuration not stated) + Cc1cccc(N(C)C(=O)C2C(O)CCN2c2nc(C)cc(C(F)(F)F)c2C#N)c1 has a viability, T/C of 83.5%. Compound `C=CC(=O)N1CCN(c2nc(=O)n(-c3c(C)ccnc3C(C)C)c3nc(-c4c(O)cccc4F)c(F)cc23)C(C)C1` (configuration not stated) + Cc1cccc(N(C)C(=O)C2C(O)CCN2c2nc(C)cc(C(F)(F)F)c2C#N)c1 has a viability, T/C of 91.2%. `CC(C)n1c(=O)n(C)c2cnc3cc(F)c(-c4ccc(OCCCN5CCCCC5)nc4)cc3c21` + Cc1cccc(N(C)C(=O)C2C(O)CCN2c2nc(C)cc(C(F)(F)F)c2C#N)c1 was tested, and the viability, T/C was 94.8%. With `CCc1cc2c(N3CCc4c(cc(Cn5ccnc5)cc4-c4cn(C)nc4C(F)(F)F)C3=O)cc(C)nc2c(OC)n1` + Cc1cccc(N(C)C(=O)C2C(O)CCN2c2nc(C)cc(C(F)(F)F)c2C#N)c1 the viability, T/C was 90.8%. In the case of `CCc1cc2c(N3CCc4c(cc(Cn5ccnc5)cc4-c4cn(C)nc4C(F)(F)F)C3=O)ccnc2c(OC)n1` + Cc1cccc(N(C)C(=O)C2C(O)CCN2c2nc(C)cc(C(F)(F)F)c2C#N)c1, the viability, T/C is reported as 100%. Work on `COc1cc2cc(C(=O)CCC(=O)O)sc2cc1OC` + Cc1cccc(N(C)C(=O)C2C(O)CCN2c2nc(C)cc(C(F)(F)F)c2C#N)c1 yielded a viability, T/C of 89.9%. In the case of `COc1ccc([C@@H](O)c2cc(-c3ncnc4cc(N5CCOCC5)ccc34)c(F)cc2Cl)nn1` + Cc1cccc(N(C)C(=O)C2C(O)CCN2c2nc(C)cc(C(F)(F)F)c2C#N)c1, the viability, T/C is reported as 81.2%. `O=C(Nc1ccc(O)c(NS(=O)(=O)c2ccc(F)cc2)c1)c1ccc(-c2ccccc2)cc1` + Cc1cccc(N(C)C(=O)C2C(O)CCN2c2nc(C)cc(C(F)(F)F)c2C#N)c1 gave a viability, T/C of 97.5%.

Same assay, conditions: second compound 3.16 µM; first compound 0.1 µM; active compounds read low
In the case of `C#Cc1c(F)ccc2cc(O)cc(-c3ncc4c(N5CC6CCC(C5)N6)nc(OCC56CCCN5CC(F)C6)nc4c3F)c12` (configuration not stated) + Cc1cccc(N(C)C(=O)C2C(O)CCN2c2nc(C)cc(C(F)(F)F)c2C#N)c1, the viability, T/C is reported as 80.3%. `C=CC(=O)N1CCN(c2nc(=O)n(-c3c(C)ccnc3C(C)C)c3nc(-c4c(O)cccc4F)c(F)cc23)C(C)C1` (configuration not stated) + Cc1cccc(N(C)C(=O)C2C(O)CCN2c2nc(C)cc(C(F)(F)F)c2C#N)c1 showed a viability, T/C of 74.5%. In the case of `CC(C)n1c(=O)n(C)c2cnc3cc(F)c(-c4ccc(OCCCN5CCCCC5)nc4)cc3c21` + Cc1cccc(N(C)C(=O)C2C(O)CCN2c2nc(C)cc(C(F)(F)F)c2C#N)c1, the viability, T/C is reported as 84.5%. Work on `CCc1cc2c(N3CCc4c(cc(Cn5ccnc5)cc4-c4cn(C)nc4C(F)(F)F)C3=O)cc(C)nc2c(OC)n1` + Cc1cccc(N(C)C(=O)C2C(O)CCN2c2nc(C)cc(C(F)(F)F)c2C#N)c1 yielded a viability, T/C of 86%.
